pEC50: −log10 of the molar value.
Target: T1, delF508-CFTR-HRP (Homo sapiens, UniProt P13569, DEL508-508)
T1 construct: expressed in transfected cells
Assay: Measurement of delF508-CFTR-HRP surface expression in CFBE41o- cells (HRP luminescence);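 as to DelF508-CFTR-HRP Amax %: percent efficacy relative to a reference CFTR corrector compound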
Format: cell-based
Details: for Emax: CFBE41o-, read-out: DelF508-CFTR-HRP Amax %; for pEC50: mean of at least two replicates
Description: Measurement of delF508-CFTR-HRP Surface Expression in CFBE41o-Cells
This assay quantifies the cell surface expressions of the mutant CFTR channel using an extracellular HRP tag.
A cellular assay was developed to measure surface expression of horseradish peroxidase (HRP) tagged delF508-CFTR in the human bronchial epithelial immortalized CFBE41o-cell line (Phuan, P. W., et al, (2014) Molecular Pharmacology 86:42-51). Specifically, the HRP sequence was inserted into the fourth extracellular loop of delF508-CFTR and stably expressed in CFBE41o-cells. Cells were seeded in 384 well plate at a density of 5000 cells/well and incubated at 37° C. for 12 to 24 hours in medium (Gibco MEM #11095, 10% FBS, 10 mM HEPES, […], 200 μg/mL G418, 3 μg/mL Puromycin). The delF508-CFTR-HRP expression was induced with 500 ng/mL doxycycline (Sigma D-9891, dissolved in H2O and sterile filtered) in medium and the cells were incubated at 37° C. for 48 h. Old medium was removed and fresh medium was added containing 500 ng/mL doxycycline and unknown test compound at required test concentration in DMSO, not exceeding 0.5% final DMSO concentration. The highest concentration tested was 10 μM with a 10-point concentration response curve using a 3-fold dilution. After addition of compounds, the cells were incubated for 24 h at 37° C. On the final day, cells were washed four times in PBS containing 1 mM MgCl2 and 0.1 mM CaCl2. HRP-Substrate (SuperSignal ELISA Pico, Fisher #37069) 20 μl/well was added and the luminescence signal was determined (Viewlux, Perkin Elmer). Light was emitted upon addition of exogenous HRP-Substrate only when delF508-CFTR-HRP reached the cell surface and the HRP tag was accessible to the HRP-Substrate (note: HRP-Substrate cannot cross the lipid bilayer to reach delF508-CFTR-HRP misfolded within the cell).
The median activity for the lowest concentration of the compounds on each assay plate was calculated and this value was used to normalize the signal for each well on the respective plate. Three replicates at each concentrations for every compound were run to determine one EC50. The median value was determined and used to calculate compound activities as described below. Effective half maximal values (EC50) were calculated for each compound by performing logistic regression on measured dose-response data points using the equation: […]
where “Y” is the observed activity, “Bottom” is the lowest observed value, “Top” is the highest observed value, and the “Hill coefficient” gives the largest absolute value of the slope. The curve fitting is carried out by a curve fitting program implemented at GNF using Matlab (Mathworks). The dose response curves also were used to calculate Fold Change (FC) using the equation: […]
Compound efficacy relative to the reference compound 3-(6-(1-(2,2-difluorobenzo[d][1,3]dioxol-5-yl)cyclopropane-1-carboxamido)-3-methylpyridin-2-yl)benzoic acid was determined using the following formula: […]

T1 sequence (P13569 with tags, fused parts or gaps DEL508-508): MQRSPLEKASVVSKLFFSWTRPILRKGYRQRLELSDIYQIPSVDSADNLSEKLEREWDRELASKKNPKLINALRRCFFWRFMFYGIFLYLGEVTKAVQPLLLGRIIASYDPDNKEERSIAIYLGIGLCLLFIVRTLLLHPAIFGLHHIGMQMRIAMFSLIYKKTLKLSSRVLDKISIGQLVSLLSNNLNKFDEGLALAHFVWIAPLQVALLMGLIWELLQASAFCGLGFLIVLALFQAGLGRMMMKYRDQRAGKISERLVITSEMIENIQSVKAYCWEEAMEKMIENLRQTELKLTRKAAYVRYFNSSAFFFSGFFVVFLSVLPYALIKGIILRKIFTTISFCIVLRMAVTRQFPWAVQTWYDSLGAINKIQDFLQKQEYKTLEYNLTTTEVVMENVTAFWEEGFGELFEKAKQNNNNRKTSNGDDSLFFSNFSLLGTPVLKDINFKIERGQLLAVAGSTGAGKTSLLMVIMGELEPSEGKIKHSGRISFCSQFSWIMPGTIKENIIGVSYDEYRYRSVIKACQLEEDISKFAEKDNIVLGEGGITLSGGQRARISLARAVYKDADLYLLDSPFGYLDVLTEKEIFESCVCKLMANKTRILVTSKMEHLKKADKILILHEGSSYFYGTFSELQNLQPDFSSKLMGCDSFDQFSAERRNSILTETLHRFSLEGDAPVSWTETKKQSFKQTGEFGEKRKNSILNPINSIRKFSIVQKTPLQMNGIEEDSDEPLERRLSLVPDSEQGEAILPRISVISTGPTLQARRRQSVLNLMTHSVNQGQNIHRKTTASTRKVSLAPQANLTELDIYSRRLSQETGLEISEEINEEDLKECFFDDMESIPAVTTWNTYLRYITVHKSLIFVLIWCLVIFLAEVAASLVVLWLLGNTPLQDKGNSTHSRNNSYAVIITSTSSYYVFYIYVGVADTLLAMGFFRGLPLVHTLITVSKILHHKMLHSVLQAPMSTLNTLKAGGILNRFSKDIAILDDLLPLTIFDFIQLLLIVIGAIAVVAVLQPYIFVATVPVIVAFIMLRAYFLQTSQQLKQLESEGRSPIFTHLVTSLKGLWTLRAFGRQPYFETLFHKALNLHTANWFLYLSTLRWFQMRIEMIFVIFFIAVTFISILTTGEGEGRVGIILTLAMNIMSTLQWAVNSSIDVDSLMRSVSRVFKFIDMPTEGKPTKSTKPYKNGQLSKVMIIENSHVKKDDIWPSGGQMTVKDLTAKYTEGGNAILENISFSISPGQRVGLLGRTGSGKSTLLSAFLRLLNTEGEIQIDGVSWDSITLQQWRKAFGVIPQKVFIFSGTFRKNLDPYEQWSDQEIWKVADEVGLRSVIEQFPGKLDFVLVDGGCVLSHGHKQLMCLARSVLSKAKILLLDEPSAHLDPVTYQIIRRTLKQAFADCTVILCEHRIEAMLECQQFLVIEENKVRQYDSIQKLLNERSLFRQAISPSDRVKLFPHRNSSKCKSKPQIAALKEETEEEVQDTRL

SMILES	Emax	pEC50	DelF508-CFTR-HRP Amax %
C=C(c1ccc(F)cc1OC1(C(=O)NS(=O)(=O)c2cccc(N3CCN(c4ccccc4)CC3)n2)CC1)C(F)(F)F [Example 4-18, 1-(5-Fluoro-2-(3,3,3-trifluoroprop-1-en-2-yl)phenoxy)-N-((6-(4-phenylpiperazin-1-yl)pyridin-2-yl)sulfonyl)cyclopropane-1-carboxamide]	160%	5.47	–
O=C(NS(=O)(=O)c1cccc(N2CC[C@H](O)C2)n1)C1(Oc2cc(Cl)ccc2N2CC3(CCOCC3)C2)CC1 [Example 9-36, (S)-1-(5-Chloro-2-(7-oxa-2-azaspiro[3.5]nonan-2-yl)phenoxy)-N-((6-(3-hydroxypyrrolidin-1-yl)pyridin-2-yl)sulfonyl)cyclopropanecarboxamide]	52%	5.77	–
CC1(C)CN(c2ccc(Cl)cc2OC2(C(=O)NS(=O)(=O)c3cccc(N4CC[C@H](O)C4)n3)CC2)C1 [Example 9-21, (S)-1-(5-Chloro-2-(3,3-dimethylazetidin-1-yl)phenoxy)-N-((6-(3-hydroxypyrrolidin-1-yl)pyridin-2-yl)sulfonyl)cyclopropanecarboxamide]	720%	5.64	–
CC(C)(C)OC1CCN(c2ccc(Cl)cc2OC2(C(=O)NS(=O)(=O)c3cccc(N4CC[C@H](O)C4)n3)CC2)C1 (stereo partly drawn) [Example 9-32, 1-(2-(3-(Tert-butoxy)pyrrolidin-1-yl)-5-chlorophenoxy)-N-((6-((S)-3-hydroxypyrrolidin-1-yl)pyridin-2-yl)sulfonyl)cyclopropanecarboxamide]	485%	5.93	–
Cc1ccc(C2CC(F)(F)C2)c(OC2(C(=O)NS(=O)(=O)c3cccc(N4CC(C)(O)C4)n3)CC2)c1 [Example 4-3, 1-(2-(3,3-Difluorocyclobutyl)-5-methylphenoxy)-N-((6-(3-hydroxy-3-methylazetidin-1-yl)pyridin-2-yl)sulfonyl)cyclopropanecarboxamide]	158%	5.34	–
O=C(NS(=O)(=O)c1cccc(N2CC[C@@H](O)C2)n1)C1(Oc2cc(Cl)ccc2C2CC3(CCC3)C2)CC1 [Example 7-19, (R)-1-(5-Chloro-2-(spiro[3.3]heptan-2-yl)phenoxy)-N-((6-(3-hydroxypyrrolidin-1-yl)pyridin-2-yl)sulfonyl)cyclopropane-1-carboxamide]	350%	5.98	–
CC1(C)CCCN(c2ccc(Cl)cc2OC2(C(=O)NS(=O)(=O)c3cccc(N4CC[C@H](O)C4)n3)CC2)C1 [Example 9-4, (S)-1-(5-chloro-2-(3,3-dimethylpiperidin-1-yl)phenoxy)-N-((6-(3-hydroxypyrrolidin-1-yl)pyridin-2-yl)sulfonyl)cyclopropanecarboxamide]	835%	6.12	–
Cc1ccc(OCC(C)C)c(OC2(C(=O)NS(=O)(=O)c3cccc(N4CC[C@H](O)C4)n3)CC2)c1 [Example 6-15, (S)—N-((6-(3-hydroxypyrrolidin-1-yl)pyridin-2-yl)sulfonyl)-1-(2-isobutoxy-5-methylphenoxy)cyclopropanecarboxamide]	215%	5.53	–
O=C(NS(=O)(=O)c1cccc(N2CC[C@H](O)C2)n1)C1(Oc2cc(Cl)ccc2N2CC3(COC3)C2)CC1 [Example 9-23, (S)-1-(5-Chloro-2-(2-oxa-6-azaspiro[3.3]heptan-6-yl)phenoxy)-N-((6-(3-hydroxypyrrolidin-1-yl)pyridin-2-yl)sulfonyl)cyclopropanecarboxamide]	13.7%	5.00	–
O=C(NS(=O)(=O)c1cccc(N2CCC3(CCCO3)CC2)n1)C1(Oc2cc(Cl)ccc2C2CC3(CCC3)C2)CC1 [Example 7-6, N-((6-(1-oxa-8-azaspiro[4.5]decan-8-yl)pyridin-2-yl)sulfonyl)-1-(5-chloro-2-(spiro[3.3]heptan-2-yl)phenoxy)cyclopropanecarboxamide]	408%	6.07	–
Cc1ccc(C2CC3(CCC3)C2)c(OC2(C(=O)NS(=O)(=O)c3cccc(N4CC[C@H](O)C4)n3)CC2)c1 [Example 4-19, (S)-N-((6-(3-Hydroxypyrrolidin-1-yl)pyridin-2-yl)sulfonyl)-1-(5-methyl-2-(spiro[3.3]heptan-2-yl)phenoxy)cyclopropane-1-carboxamide]	626%	5.96	–

More lines, in order of rising pEC50, values ahead:

Emax	pEC50	DelF508-CFTR-HRP Amax %	SMILES
265%	5.64	–	CC1(C)CN(c2ccc(Cl)cc2OC2(C(=O)NS(=O)(=O)c3cccc(N4CC[C@H](O)C4)n3)CC2)CC2(CCCC2)O1 [Example 9-33, (S)-1-(5-Chloro-2-(7,7-dimethyl-6-oxa-9-azaspiro[4.5]decan-9-yl)phenoxy)-N-((6-(3-hydroxypyrrolidin-1-yl)pyridin-2-yl)sulfonyl)cyclopropanecarboxamide]
513%	5.68	–	Cc1ccc(-c2cc(C(F)(F)F)ccn2)c(OC2(C(=O)NS(=O)(=O)c3cccc(N4CC[C@H](O)C4)n3)CC2)c1 [Example 5-13, (S)—N-((6-(3-Hydroxypyrrolidin-1-yl)pyridin-2-yl)sulfonyl)-1-(5-methyl-2-(4-(trifluoromethyl)pyridin-2-yl)phenoxy)cyclopropane-1-carboxamide]
376%	5.69	–	O=C(NS(=O)(=O)c1cccc(N2CC[C@H](O)C2)n1)C1(Oc2cc(Cl)ccc2-c2ccc3ccoc3c2)CC1 [Example 5-4, (S)-1-(2-(Benzofuran-6-yl)-5-chlorophenoxy)-N-((6-(3-hydroxypyrrolidin-1-yl)pyridin-2-yl)sulfonyl)cyclopropane-1-carboxamide]
588%	5.87	–	O=C(NS(=O)(=O)c1cccc(N2C[C@H]3CC[C@@H](O)[C@H]3C2)n1)C1(Oc2cc(Cl)ccc2N2CC3(CCCCC3)C2)CC1 [Example 9-3, 1-(5-chloro-2-(2-azaspiro[3.5]nonan-2-yl)phenoxy)-N-((6-((3aR,4R,6aS)-4-hydroxyhexahydrocyclopenta[c]pyrrol-2(1H)-yl)pyridin-2-yl)sulfonyl)cyclopropane-1-carboxamide]
–	6.05	493.9%	CC1(O)CCN(c2cccc(S(=O)(=O)NC(=O)C3(Oc4cc(Cl)ccc4C4CC5(CCC5)C4)CCCC3)n2)C1 (single isomer, unassigned) [Example 7-18-1, 1-(5-Chloro-2-(spiro[3.3]heptan-2-yl)phenoxy)-N-((6-(3-hydroxy-3-methylpyrrolidin-1-yl)pyridin-2-yl)sulfonyl)cyclopentane-1-carboxamide]
357%	6.23	–	CC1(NC(=O)OC(C)(C)C)CCN(c2cccc(S(=O)(=O)NC(=O)C3(Oc4cc(Cl)ccc4C4CC5(CCC5)C4)CC3)n2)CC1 [Example 7-7, Tert-butyl (1-(6-(N-(1-(5-chloro-2-(spiro[3.3]heptan-2-yl)phenoxy)cyclopropanecarbonyl)sulfamoyl)pyridin-2-yl)-4-methylpiperidin-4-yl)carbamate]
547%	6.28	–	CC1(C)CCN(c2ccc(Cl)cc2OC2(C(=O)NS(=O)(=O)c3cccc(N4CC[C@](C)(O)C4)n3)CC2)CC1 [Example 10-1, (S)-1-(5-chloro-2-(4,4-dimethylpiperidin-1-yl)phenoxy)-N-((6-(3-hydroxy-3-methylpyrrolidin-1-yl)pyridin-2-yl)sulfonyl)cyclopropanecarboxamide]
268%	6.34	–	CC1(C)CCN(c2ccc(Cl)cc2OC2(C(=O)NS(=O)(=O)c3cccc(N4CCC(O)(C(F)(F)F)CC4)n3)CC2)CC1 [Example 10-9, 1-(5-chloro-2-(4,4-dimethylpiperidin-1-yl)phenoxy)-N-((6-(4-hydroxy-4-(trifluoromethyl)piperidin-1-yl)pyridin-2-yl)sulfonyl)cyclopropanecarboxamide]
428%	6.68	–	Cc1ccc(OC2CCC(C(C)(C)C)CC2)c(OC2(C(=O)NS(=O)(=O)c3cccc(N4CCC(O)(C(F)(F)F)CC4)n3)CC2)c1 (stereo not shown) [Example 6-8, 1-(2-((4-(tert-butyl)cyclohexyl)oxy)-5-methylphenoxy)-N-((6-(4-hydroxy-4-(trifluoromethyl)piperidin-1-yl)pyridin-2-yl)sulfonyl)cyclopropanecarboxamide]
